In patent US20250332080A1, “Skin Cell Energy Booster Composition” (CarboCode S.A., priority 2022, published 2025):

Tested on: Reconstructed Human Epidermis (RHE)
Assay: Proteomic (LC-MS/MS) analysis of Reconstructed Human Epidermis treated topically with ceramide in base emulsion
Assay type: cell-based
Conditions: topical 24 h, 0.01%, 0.03%, 0.15% ceramide in vehicle vs vehicle
From the text: FIGS. 1 to 3 show heatmaps using a log 2 scale with up- or downregulation of respective proteins upon treatment with 0.01% (01), 0.03% (03) and 0.15% (15) of respective ceramide in vehicle as compared to vehicle without ceramide (VEH) (FIG. 1: GlcCerNS, FIG. 2: LacCerNS, FIG. 3: CerNG); detailed experimental setup explained in Example 1.
Material and methods: Reconstructed Human Epidermis (RHE) cell culture was used, as this system mimics the in vivo 3D structure of epidermal tissue as well as the conditions and processes that occur in normal epidermis. RHE were cultured using the medium provided by the manufacturer until analysis. RHE were maintained in survival for 24 hours, before RHE were topically treated with lipid in a base emulsion for 24 h. 3 RHE were treated with base emulsion alone and 3 more remained untreated as a control batch (Ctrl). RHE were incubated under classical cell culture conditions (37° C., 5% CO2).
Sample preparation and LC-MS/MS analysis: Protein was extracted using the Pierce Total Protein Extraction Kit (Thermo Fisher) according to manufacturer's recommendations. The protein was mixed with Laemmli buffer and heated to 37° C. for 30 min. Protein concentration was determined by the BCA method and standardized for all samples. The samples were separated by SDS-PAGE and digested with trypsin overnight. The peptides generated were acidified and separated. The mass spectra were queried using Proteome Discoverer (version 2.5). The resulting MS/MS data were queried against the Homo sapiens proteome UP000005640 (20371 reviewed entries). Results were filtered based on unique peptides>2, and global peptide scores. Analyses were performed using Proteome Discoverer 2.5 to check for overall sample quality.
Bioinformatics and statistical analysis: Proteomic analysis returned a mean total of 34961 high-quality peptides corresponding to a mean 2422 identifiable and quantifiable RHE proteins among conditions. Proteins with a p-value<0.05 in at least one of the concentrations tested for a lipid were considered significant and used for pairwise comparisons. Relevant proteins were classified by their biological processes and associated pathways using the publicly available gene ontology (GO) database provided by the Gene Ontology Consortium and Reactome. Interactome analysis was performed using Cytoscape combined with STRING.

Glucosyl ceramide [GlcCer]
upregulation: ATP synthase subunit delta (mitochondrial) protein level | ATP synthase subunit g (mitochondrial) protein level | ATP-dependent zinc metalloprotease YME1L1 protein level | NAD-dependent malic enzyme (mitochondrial) protein level | NADH dehydrogenase [ubiquinone]1 alpha subcomplex subunit 8 protein level | NADH dehydrogenase [ubiquinone]iron-sulfur protein 2 (mitochondrial) protein level | cytochrome c oxidase subunit 6C protein level | phosphomevalonate kinase protein level

ceramide NG
upregulation: ATP synthase subunit delta (mitochondrial) protein level | ATP synthase subunit g (mitochondrial) protein level | cytochrome c oxidase subunit 6C protein level | phosphomevalonate kinase protein level

lactosyl ceramide
upregulation: ATP synthase subunit delta (mitochondrial) protein level | ATP synthase subunit g (mitochondrial) protein level | ATP-dependent zinc metalloprotease YME1L1 protein level | NAD-dependent malic enzyme (mitochondrial) protein level | cytochrome b-c1 complex subunit 9 protein level | cytochrome c oxidase subunit 2 protein level | cytochrome c oxidase subunit 6C protein level | cytochrome c oxidase subunit NDUFA4 protein level | phosphomevalonate kinase protein level
